Experimental data published in ChEMBL document CHEMBL1141033, “First-in-class pan caspase inhibitor developed for the treatment of liver disease” (J Med Chem, 2005).

How the values were obtained:
Caspase-6 (Homo sapiens) = target: T1, Caspase-6 (Homo sapiens) (UniProt P55212); assay: Inhibitory activity against Caspase-6
T1 sequence (whole entry): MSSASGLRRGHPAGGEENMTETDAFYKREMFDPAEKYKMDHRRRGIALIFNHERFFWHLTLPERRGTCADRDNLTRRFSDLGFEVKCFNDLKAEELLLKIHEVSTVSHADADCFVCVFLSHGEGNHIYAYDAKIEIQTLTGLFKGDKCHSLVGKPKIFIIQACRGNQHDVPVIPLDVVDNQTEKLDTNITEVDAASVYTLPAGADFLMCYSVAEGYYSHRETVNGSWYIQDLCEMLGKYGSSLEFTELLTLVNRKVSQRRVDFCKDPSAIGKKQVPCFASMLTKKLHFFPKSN

Caspase-3 (Homo sapiens) = target: T2, Caspase-3 (Homo sapiens) (UniProt P42574); assay: Inhibitory activity against Caspase-3
T2 sequence (whole entry): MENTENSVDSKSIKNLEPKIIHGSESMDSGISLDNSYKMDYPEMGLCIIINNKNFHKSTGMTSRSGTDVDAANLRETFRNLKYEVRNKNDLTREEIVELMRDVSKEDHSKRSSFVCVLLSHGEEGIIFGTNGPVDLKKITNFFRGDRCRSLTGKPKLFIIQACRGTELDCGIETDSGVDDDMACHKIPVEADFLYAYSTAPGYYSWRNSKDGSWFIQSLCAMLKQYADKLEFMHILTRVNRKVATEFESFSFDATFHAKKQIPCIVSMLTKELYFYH

Caspase-1 (Mus musculus) = target: T3, Caspase-1 (Mus musculus) (UniProt P29452); assay: Inhibitory activity against murine Caspase-1
T3 sequence (whole entry): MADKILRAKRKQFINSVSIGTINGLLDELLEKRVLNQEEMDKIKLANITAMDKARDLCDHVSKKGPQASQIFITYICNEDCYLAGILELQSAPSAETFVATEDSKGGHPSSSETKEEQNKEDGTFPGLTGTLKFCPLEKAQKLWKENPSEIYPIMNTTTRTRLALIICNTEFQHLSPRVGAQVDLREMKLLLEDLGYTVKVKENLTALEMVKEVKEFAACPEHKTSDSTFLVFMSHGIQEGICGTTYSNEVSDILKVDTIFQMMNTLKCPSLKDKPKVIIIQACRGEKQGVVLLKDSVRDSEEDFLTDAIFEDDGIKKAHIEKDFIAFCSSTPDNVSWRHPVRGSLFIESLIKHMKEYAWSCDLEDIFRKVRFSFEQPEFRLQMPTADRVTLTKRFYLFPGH

Rattus norvegicus = assay: Effective dose required for pancaspase inhibition in a-Fas liver upon i.p. administration; range = 0.03-0.05; type: functional; settings: ip
Caspase-8 (Homo sapiens) = Caspase-8 (Homo sapiens) (UniProt Q14790); assay: Inhibitory activity against Caspase-8
Sequence of Caspase-8 (Homo sapiens) (Q14790 217-374 limits assumed): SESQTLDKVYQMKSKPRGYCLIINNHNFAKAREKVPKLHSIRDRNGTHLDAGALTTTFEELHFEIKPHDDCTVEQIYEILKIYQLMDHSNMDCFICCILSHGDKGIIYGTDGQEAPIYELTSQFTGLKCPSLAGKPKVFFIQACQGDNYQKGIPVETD
Sequence of Caspase-8 (Homo sapiens) (Q14790 385-479 limits assumed): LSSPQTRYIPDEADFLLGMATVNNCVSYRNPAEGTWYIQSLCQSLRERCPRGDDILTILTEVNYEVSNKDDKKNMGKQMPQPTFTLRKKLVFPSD

THP-1 = assay: Inhibitory concentration against THP-1 cells; type: functional, cell-based; settings: Homo sapiens
Jurkat = assay: Inhibitory concentration against JFas cells; type: functional, cell-based; settings: Homo sapiens
Mus musculus [1] = assay: Effective dose required for pancaspase inhibition in a-Fas liver upon i.p. administration; range = 0.02-0.16; settings: ip
Mus musculus [2] = assay: Effective dose required for pancaspase inhibition in a-Fas liver upon i.p. administration; range = 0.02-0.11; settings: ip
Mus musculus [3] = assay: Effective dose required for pancaspase inhibition in a-Fas liver upon i.p. administration; settings: ip

Structure (SMILES)	k3/Ki (Caspase-6 (Homo sapiens))	k3/Ki (Caspase-3 (Homo sapiens))	k3/Ki (Caspase-1 (Mus musculus))	ED50 (Rattus norvegicus)	k3/Ki (Caspase-8 (Homo sapiens))	IC50 (THP-1)	IC50 (Jurkat)	ED50 (Mus musculus [1])	ED50 (Mus musculus [2])	ED50 (Mus musculus [3])
C[C@H](NC(=O)C(=O)Nc1ccccc1Cl)C(=O)N[C@@H](CC(=O)O)C(=O)COP(=O)(c1ccccc1)c1ccccc1	37100 M⁻¹ s⁻¹	211000 M⁻¹ s⁻¹	3.96e+06 M⁻¹ s⁻¹	0.04 mg/kg	1.41e+06 M⁻¹ s⁻¹	1040 nM	68 nM			
C[C@H](NC(=O)C(=O)Nc1ccccc1Cl)C(=O)N[C@@H](CC(=O)O)C(=O)COc1c(F)c(F)cc(F)c1F	26000 M⁻¹ s⁻¹	219000 M⁻¹ s⁻¹	1.34e+07 M⁻¹ s⁻¹		228000 M⁻¹ s⁻¹	540 nM	64 nM	0.05 mg/kg		
C[C@H](NC(=O)C(=O)Nc1ccccc1Br)C(=O)N[C@@H](CC(=O)O)C(=O)COc1c(F)c(F)cc(F)c1F	25200 M⁻¹ s⁻¹	186000 M⁻¹ s⁻¹	1.34e+06 M⁻¹ s⁻¹		542000 M⁻¹ s⁻¹	50 nM	75 nM			
O=C(O)CC(NC(=O)[C@@H]1Cc2cccc3c2N1C(=O)[C@@H](NC(=O)OCc1ccccc1)CC3)C(=O)CF (stereo partly specified)	25000 M⁻¹ s⁻¹	960000 M⁻¹ s⁻¹	1.2e+07 M⁻¹ s⁻¹		98000 M⁻¹ s⁻¹	300 nM	510 nM			
C[C@H](NC(=O)C(=O)Nc1ccccc1)C(=O)N[C@@H](CC(=O)O)C(=O)COc1c(F)c(F)cc(F)c1F	31700 M⁻¹ s⁻¹	25400 M⁻¹ s⁻¹	127000 M⁻¹ s⁻¹		65300 M⁻¹ s⁻¹	140 nM	670 nM			
C[C@H](NC(=O)C(=O)Nc1cc(C(C)(C)C)ccc1C(C)(C)C)C(=O)N[C@@H](CC(=O)O)C(=O)COc1c(F)c(F)cc(F)c1F	15400 M⁻¹ s⁻¹	38200 M⁻¹ s⁻¹	1.63e+07 M⁻¹ s⁻¹		365000 M⁻¹ s⁻¹	1840 nM	62 nM		0.05 mg/kg	
C[C@H](NC(=O)C(=O)Nc1ccccc1-c1ccccc1)C(=O)N[C@@H](CC(=O)O)C(=O)COC(=O)c1c(Cl)cccc1Cl	61000 M⁻¹ s⁻¹	29000 M⁻¹ s⁻¹	7.28e+06 M⁻¹ s⁻¹		342000 M⁻¹ s⁻¹	4360 nM	390 nM			
Cc1c(C(=O)N[C@H](C(=O)NC(CC(=O)O)C(=O)CF)C(C)C)n(C)c2ccccc12 (stereo partly specified)	98000 M⁻¹ s⁻¹	19000 M⁻¹ s⁻¹	10100 M⁻¹ s⁻¹		34400 M⁻¹ s⁻¹	10000 nM	1300 nM			
C[C@H](NC(=O)C(=O)Nc1ccc2c(c1)CCC2)C(=O)N[C@@H](CC(=O)O)C(=O)COc1c(F)c(F)cc(F)c1F	31900 M⁻¹ s⁻¹	42000 M⁻¹ s⁻¹	270000 M⁻¹ s⁻¹		204000 M⁻¹ s⁻¹	120 nM	200 nM			
C[C@H](NC(=O)C(=O)Nc1ccccc1Oc1ccccc1)C(=O)N[C@@H](CC(=O)O)C(=O)COc1c(F)c(F)cc(F)c1F	5900 M⁻¹ s⁻¹	51000 M⁻¹ s⁻¹	960000 M⁻¹ s⁻¹		154000 M⁻¹ s⁻¹	800 nM	530 nM			
C[C@H](NC(=O)C(=O)NCc1ccccc1)C(=O)N[C@@H](CC(=O)O)C(=O)COc1c(F)c(F)cc(F)c1F	37100 M⁻¹ s⁻¹	35500 M⁻¹ s⁻¹	674000 M⁻¹ s⁻¹		32500 M⁻¹ s⁻¹	160 nM	300 nM			
C[C@H](NC(=O)C(=O)Nc1cc(C(C)(C)C)ccc1C(C)(C)C)C(=O)N[C@@H](CC(=O)O)C(=O)COP(=O)(c1ccccc1)c1ccccc1	7640 M⁻¹ s⁻¹	18300 M⁻¹ s⁻¹	2.71e+06 M⁻¹ s⁻¹		970000 M⁻¹ s⁻¹	5870 nM	109 nM			0.5 mg/kg
